# The source made the active and inactive calls. The rule behind the calls is not given here.
# Legend:
# Aspergillus niger = assay: Antimicrobial activity against Aspergillus niger; format: functional
# 1321-N1 = assay: Enhancement of NGF mRNA expression in human 1321N1 cells; format: functional, cell-based
# Cryptococcus neoformans = assay: Antimicrobial activity against Cryptococcus neoformans; format: functional
# L1210 = assay: Cytotoxicity against mouse L1210 cells; format: cell-based
structure (smiles),measurement,setting,value
C[C@@H]1C[C@H]2CC3=C(CC[C@H](c4cnc5c(c4)[C@@]46C[C@H](C)C[C@@H](C5)[C@H]4CCCN6)N3)[C@]3(C1)NCCC[C@H]23 [COMPLANADINE D],MIC,Aspergillus niger,4.16 µg/mL
same,Activity,1321-N1,Active
same,MIC,Cryptococcus neoformans,0.26 µg/mL
same,IC50,L1210,7 µg/mL

# Reference: ChEMBL document CHEMBL1144499, “Complanadines C and D, new dimeric alkaloids from Lycopodium complanatum” (Bioorg Med Chem, 2007)
